In assay [1] the target is A/M2 S31N (Influenza A virus, UniProt P0DOF5, S31N). The class given is cell-based, influenza A/Udorn/72. Conditions: for A/M2 S31N inhibition by 100 μM for 2 min (mean ± SE): pH 5.5.
Assay [2] deals with A/PR/8/34 (A/H1N1). The format is cell-based, influenza A virus.
For assay [3], the target named is A/M2 V27A (Influenza A virus, UniProt P0DOF5, V27A). The format is cell-based, influenza A/Udorn/72.

The values that follow come from article PMC4096222 (Journal of Medicinal Chemistry, 2014).

With `CC12CC34CNCC35CC1(C)C(C)(C5)C2(C)C4.Cl` (stereo not shown) [compound 18, 7,8,9,10-Tetramethyl-3-azapentacyclo[7.2.1.1^5,8.0^1,5.0^7,10]tridecane Hydrochloride], the “inhibition of S31N mutant ion channel” value in assay [1] is listed as “lack of inhibitory potency”. In addition, in assay [2], the “activity against A/PR/8/34 strain” value is reported as “strong activity”. Turning to `C1=CC2C3CC3C1C1CN(C3CCNCC3)CC21.Cl` (stereo not shown) [compound 8, 4-(4-Piperidinyl)-4-azatetracyclo[5.3.2.0^2,6.0^8.10]dodec-11-ene Dihydrochloride], in assay [2], the “activity against A/PR/8/34 strain” value was “strong activity”. `Cl.N=C(N)N1CC2C3CCC(C4CCC43)C2C1` (stereo not shown) [compound 14, 4-Amidino-4-azatetracyclo[5.4.2.0^2,6.0^8.11]tridecane Hydrochloride]: in assay [3], the “activity against V27A M2 mutant channel” value was “fair activity”. Take `C1=CC2C3CNCC3C1C1CC21.Cl` (stereo not shown) [compound 4, 4-Azatetracyclo[5.3.2.0^2,6.0^8.10]dodec-11-ene Hydrochloride]: the “A/M2 S31N inhibition by 100 μM for 2 min (mean ± SE)” value in assay [1] is 0%. Same read-out and setting: to `Cl.N=C(N)N1CC2C3C=CC(C4CC34)C2C1` (stereo not shown) [compound 5, 4-Amidino-4-azatetracyclo[5.3.2.0^2,6.0^8.10]dodec-11-ene Hydrochloride] belongs 0%. Take `C1=CC2C1C1C=CC2C2CNCC12.Cl` (stereo not shown) [compound 11, 4-Azatetracyclo[5.4.2.0^2,6.0^8.11]trideca-9,12-diene Hydrochloride]: the “activity against A/PR/8/34 strain” value in assay [2] was “strong activity”.
